Structures can show the parent of a compound that is named as a salt.
Each compound was assayed on compound 48/80-induced lethality (assay: Protection of rats from compound 48/80-induced lethality). Conditions: Rattus norvegicus, 4 h, read-out: compound 48/80 lethality test in rats-ED50, dose protecting 50% of animals; subcutaneous or oral, 1 h before compound 48/80 0.5 mg/kg i.v.; survival after 4 h.
Type: in vivo, rat (male, inbred Wistar strain)
Procedure: Protection of rats from compound 48/80-induced lethality.
The protection from compound 48/80-induced lethal circulatory collapse appears to be a simple way of evaluating quantitatively the antihistaminic activity of test compounds. Male rats of an inbred Wistar strain, weighing 240-260 g were used in the experiment. After overnight starvation the rats were transferred to conditioned laboratories (temp.=21±1° C., relative humidity=65±5%).
The rats were treated subcutaneously or orally with a test compound or with the solvent (NaCl solution, 0.9%). […] Survival after 4 hours is therefore considered to be a safe criterion of a protective effect of drug administration.
The ED50 -values of the compounds of formula (I) are listed in the first column of table 1. Said ED50 -values are the values in mg/kg body weight at which the tested compounds protect 50% of the tested animals against compound 48/80-induced lethality.

| Compound | ED50 [mg/kg] |
| --- | --- |
| Cc1csc(NCCN2CCC(Nc3nc4ccccc4n3Cc3ccc(F)cc3)CC2)n1 [Compound 85, 1-[(4-fluorophenyl)methyl]-N-[1-[2-[(4-methyl-2-thiazolyl)amino]ethyl]-4-piperidinyl]-1H-benzimidazol-2-amine] | 0.08 |
| Fc1ccc(Cn2ccnc2NCCN2CCC(Nc3nc4ccccc4n3Cc3ccc(F)cc3)CC2)cc1 [Compound 82, 1-[(4-fluorophenyl)methyl]-N-[1-[2-[[1-[(4-fluorophenyl)methyl]-1H-imidazol-2-yl]amino]ethyl]-4-piperidinyl]-1H-benzimidazol-2-amine cyclohexanesulfamate(1:3).dihydrate] | 0.16 |
| Fc1ccc(Cn2c(NC3CCN(CCNc4nc5ccccc5s4)CC3)nc3ccccc32)cc1 [Compound 19] | 0.31 |
| Fc1ccc(Cn2c(NC3CCN(CCSc4nc5ccccc5o4)CC3)nc3ccccc32)cc1 [Compound 73, N-[1-[2-[(2-benzoxazolyl)thio]ethyl]-4-piperidinyl]-1-[(4-fluorophenyl)methyl]-1H-benzimidazol-2-amine] | 0.63 |
| O=[N+]([O-])c1ccc(Cn2c(NC3CCN(CCNc4nccs4)CC3)nc3ccccc32)cc1 [Compound 43] | 0.31 |
| COc1ccc(Cn2c(NC3CCN(CCNc4nccs4)CC3)nc3ccccc32)cc1 [Compound 24] | 0.31 |
| CCn1nnnc1OCCN1CCC(Nc2nc3ccccc3n2Cc2ccc(F)cc2)CC1 [Compound 10, N-[1-[2-[(1-ethyl-1H-tetrazol-5-yl)oxy]ethyl]-4-piperidinyl]-1-[(4-fluorophenyl)methyl]-1H-benzimidazol-2-amine (E)-2-butenedioate (2:5)] | 0.04 |
| O=C(c1ccccc1)N(CCN1CCC(Nc2nc3ccccc3n2Cc2ccc(F)cc2)CC1)c1nccs1 [Compound 100, N-[2-[4-[[1-[(4-fluorophenyl)methyl]-1H-benzimidazol-2-yl]amino]-1-piperidinyl]ethyl]-N-(2-thiazolyl)benzamide] | 0.31 |
| Fc1ccccc1Cn1c(NC2CCN(CCNc3nccs3)CC2)nc2ccccc21 [Compound 31] | 0.08 |
| CCc1nnc(NCCN2CCC(Nc3nc4ccccc4n3Cc3ccc(F)cc3)CC2)s1 [Compound 33] | 0.16 |
| Cn1ccnc1SCCN1CCC(Nc2nc3ccccc3n2Cc2ccc(F)cc2)CC1 [Compound 75, 1-[(4-fluorophenyl)methyl]-N-[1-[2-[(1-methyl-1H-imidazol-2-yl)thio]ethyl]-4-piperidinyl]-1H-benzimidazol-2-amine] | 0.08 |
| CCn1nnnc1SCCN1CCC(Nc2nc3ccccc3n2Cc2ccc(F)cc2)CC1 [Compound 74, N-[1-[2-[(1-ethyl-1H-tetrazol-5-yl)thio]ethyl]-4-piperidinyl]-1-[(4-fluorophenyl)methyl]-1H-benzimidazol-2-amine] | 0.08 |
| CC(C)n1ccnc1NCCN1CCC(Nc2nc3ccccc3n2Cc2ccc(F)cc2)CC1.O [Compound 81, 1-[(4-fluorophenyl)methyl]-N-[1-[2-[[1-(1-methylethyl)-1H-imidazol-2-yl]amino]-ethyl]-4-piperidinyl]-1H-benzimidazol-2-amine mono hydrate] | 0.04 |
| CNC(=S)N(CCN1CCC(Nc2nc3ccccc3n2Cc2ccc(F)cc2)CC1)c1nccs1 [Compound 104, N-[2-[4-[[1-[(4-fluorophenyl)methyl]-1H-benzimidazol-2-yl]amino]-1-piperidinyl]ethyl]-N'-methyl-N-(2-thiazolyl)thiourea] | 0.16 |
| CN(c1nc2ccccc2n1Cc1ccc(F)cc1)C1CCN(CCNc2nccs2)CC1 [Compound 26] | 0.02 |
| Nc1ccc(Cn2c(NC3CCN(CCNc4nccs4)CC3)nc3ccccc32)cc1 [Compound 35] | 0.31 |
| c1ccc(Cn2c(NC3CCN(CCNc4nccs4)CC3)nc3cccnc32)nc1 [Compound 57] | 0.005 |
| Fc1ccc(Cn2c(NC3CCN(CCOc4nc5ccccc5s4)CC3)nc3ccccc32)cc1 [Compound 67, N-[1-[2-(2-benzothiazolyloxy)ethyl]-4-piperidinyl]-1-[(4-fluorophenyl)methyl]-1H-benzimidazol-2-amine] | 0.63 |

| Compound | ED50 [mg/kg] |
| --- | --- |
| Fc1ccc(Cn2c(NC3CCN(CCc4csc(-c5ccccc5)n4)CC3)nc3ccccc32)cc1 [Compound 92, 1-[(4-fluorophenyl)methyl]-N-[1-[2-(2-phenyl-4-thiazolylethyl]-4-piperidinyl]-1H-benzimidazol-2-aminedihydrochloride monohydrate] | 0.63 |
| Fc1ccc(Cn2c(NC3CCN(CCCCNc4nccs4)CC3)nc3ccccc32)cc1 [Compound 53] | 0.31 |
| Cn1cnc([N+](=O)[O-])c1NCCN1CCC(Nc2nc3ccccc3n2Cc2ccc(F)cc2)CC1 [Compound 12] | 0.31 |
| O=C(Cc1c[nH]c2ccccc12)NCCN1CCC(Nc2nc3ccccc3n2Cc2ccc(F)cc2)CC1 [Compound 77, N-[2-[4-[[1-[(4-fluorophenyl)methyl]-1H-benzimidazol-2-yl]amino]-1-piperidinyl]ethyl]-1H-indol-3-acetamide] | 0.16 |
| Fc1ccc(Cn2c(NC3CCN(CCNc4nccn4-c4ncccn4)CC3)nc3ccccc32)cc1 [Compound 105] | 0.16 |
| Fc1ccc(Cn2c(NC3CCN(CCNc4nccs4)CC3)nc3ccncc32)cc1 [Compound 23] | 0.08 |
| O=[N+]([O-])c1cnc(NCCN2CCC(Nc3nc4ccccc4n3Cc3ccc(F)cc3)CC2)s1 [Compound 32] | 0.63 |
| c1coc(Cn2c(NC3CCN(CCNc4nccs4)CC3)nc3cccnc32)c1 [Compound 56] | 0.01 |
| CCOC(=O)N(CCN1CCC(Nc2nc3ccccc3n2Cc2ccc(F)cc2)CC1)c1nccs1 [Compound 101, ethyl[2-[4-[[1-[(4-fluorophenyl)methyl]-1H-benzimidazol-2-yl]amino]-1-piperidinyl]ethyl](2-thiazolyl)carbamate] | 0.31 |
| CC(c1ccc(Cl)cc1)n1ccnc1NCCN1CCC(Nc2nc3ccccc3n2Cc2ccc(F)cc2)CC1 (stereo not drawn) [Compound 106, N-[1-[2-[[1-[1-(4-chlorophenyl)ethyl]-1H-imidazol-2-yl]amino]ethyl]-4-piperidinyl]-1-[(4-fluorophenyl)methyl]-1H-benzimidazol-2-amine cyclohexanesulfamate(1:3).dihydrate] | 0.63 |
| Cn1c(C(=O)NCCN2CCC(Nc3nc4ccccc4n3Cc3ccc(F)cc3)CC2)cc2ccccc21 [Compound 78, N-[2-[4-[[1-[(4-fluorophenyl)methyl]-1H-benzimidazol-2-yl]amino]-1piperidinyl]ethyl]-1-methyl-1H-indole-2-carboxamide] | 0.16 |
| c1ccc(Cn2c(NC3CCN(CCNc4nccs4)CC3)nc3ccccc32)nc1 [Compound 27] | 0.04 |
| CN(CCN1CCC(Nc2nc3ccccc3n2Cc2ccc(F)cc2)CC1)c1nccs1 [Compound 50, 1-[(4-fluorophenyl)methyl]-N-[1-[2-[methyl(2-thiazolyl)amino]ethyl]-4-piperidinyl]-1H-benzimidazol-2-amine] | 0.08 |
| Fc1ccc(Cn2c(NC3CCN(CCCNc4nccs4)CC3)nc3ccccc32)cc1 [Compound 20] | 0.16 |
| O=C(NCCN1CCC(Nc2nc3ccccc3n2Cc2ccc(F)cc2)CC1)c1cc2ccccc2[nH]1 [Compound 76, N-[2-[4-[[1-[(4-fluorophenyl)methyl]-1H-benzimidazol-2-yl]amino]-1-piperidinyl]ethyl]-1H-indole-2-carboxamide] | 0.16 |
| N=C(NCCN1CCC(Nc2nc3ccccc3n2Cc2ccc(F)cc2)CC1)Nc1nc2ccccc2[nH]1 [Compound 66, N-(1H-benzimidazol-2-yl)-N'-[2-[4-[[1-[(4-fluorophenyl)methyl]-1H-benzimidazol-2-yl]amino]-1-piperidinyl]ethyl]guanidine trihydrochloride.dihydrate] | 0.31 |
| Nc1nc(CCN2CCC(Nc3nc4ccccc4n3Cc3ccc(F)cc3)CC2)cs1 [Compound 91, N-[1-[2-(2-amino-4-thiazolyl)ethyl]-4-piperidinyl]-1-[(4-fluorophenyl)methyl]-1H-benzimidazol-2-amine] | 0.08 |
| Fc1ccc(Cn2c(NC3CCN(Cc4nc5ccccc5[nH]4)CC3)nc3ccccc32)cc1.O [Compound 2, N-[1-(1H-benzimidazol-2-ylmethyl)-4-piperidinyl]-1-(4fluorophenylmethyl)-1H-benzimidazol-2-amine monohydrate] | 0.63 |

Same assay, conditions: dose protecting 50% of animals; subcutaneous or oral, 1 h before compound 48/80 0.5 mg/kg i.v.; survival after 4 h; 0.5 mg/kg, 240 min

| Compound | compound 48/80 lethality test in rats-ED50 [mg/kg body weight] |
| --- | --- |
| Fc1ccc(Cn2c(NC3CCN(CCNc4nccs4)CC3)nc3ccccc32)cc1 [Compound 16] | 0.08 |

What follows are compounds tested on effects of serotonin in the gastric lesion test (assay: Antagonistic activity on the effects of serotonin in the gastric lesion test (lesions induced by compound 48/80)). Conditions: Rattus norvegicus, read-out: gastric lesion test ED50.
Type: in vivo, rat (male, Wistar inbred strain)
Source text: The compounds of formula (I) and the pharmaceutically acceptable acid addition salts thereof are also potent serotonin-antagonists. The potency of the subject compounds as serotonin-antagonists is clearly evidenced by the results obtained in the following tests wherein the antagonistic activity of the subject compounds on the effect of serotonin is examined.
Antagonistic activity on the effects of serotonin in the gastric lesion test.
The shock, followed by dead, can be avoided if the rats are pretreated with a classical H 1 antagonist.
Male rats of a Wistar inbred strain, weighing 220-250 g, were starved overnight, water being available ad libitum. The test compounds were administered orally as a solution or as a suspension in aqueous medium. A control rat and a "blank" rat received the test compound. One hour later 5-[4-(diphenylmethyl)-1-piperazinylmethyl]-1-methyl-1H-benzimidazole-2-methanol was administered subcutaneously to all rats at the dose of 2.5 mg/kg.
Four hours after the intravenous injection of compound 48/80, the rats were decapitated and the stomachs were removed. Subsequently the stomachs were inspected for distension and contents (blood, fluid, food) and thoroughly rinsed. The macroscopic lesions were scored from 0 to +++, 0 corresponding to the complete absence of visible lesions and the highest score corresponding to reddish rough patches covering more than half the glandular area.

| Compound | ED50 [mg/kg] |
| --- | --- |
| Cc1csc(NCCN2CCC(Nc3nc4ccccc4n3Cc3ccc(F)cc3)CC2)n1 [Compound 85, 1-[(4-fluorophenyl)methyl]-N-[1-[2-[(4-methyl-2-thiazolyl)amino]ethyl]-4-piperidinyl]-1H-benzimidazol-2-amine] | 0.04 |
| Cn1ccnc1SCCN1CCC(Nc2nc3ccccc3n2Cc2ccc(F)cc2)CC1 [Compound 75, 1-[(4-fluorophenyl)methyl]-N-[1-[2-[(1-methyl-1H-imidazol-2-yl)thio]ethyl]-4-piperidinyl]-1H-benzimidazol-2-amine] | 0.08 |

Same assay, conditions: Rattus norvegicus; read-out: gastric lesion test ED50

| Compound | ED50 [mg/kg] |
| --- | --- |
| O=C(c1ccccc1)N(CCN1CCC(Nc2nc3ccccc3n2Cc2ccc(F)cc2)CC1)c1nccs1 [Compound 100, N-[2-[4-[[1-[(4-fluorophenyl)methyl]-1H-benzimidazol-2-yl]amino]-1-piperidinyl]ethyl]-N-(2-thiazolyl)benzamide] | 0.63 |
| Fc1ccccc1Cn1c(NC2CCN(CCNc3nccs3)CC2)nc2ccccc21 [Compound 31] | 0.63 |
| CC(C)n1ccnc1NCCN1CCC(Nc2nc3ccccc3n2Cc2ccc(F)cc2)CC1.O [Compound 81, 1-[(4-fluorophenyl)methyl]-N-[1-[2-[[1-(1-methylethyl)-1H-imidazol-2-yl]amino]-ethyl]-4-piperidinyl]-1H-benzimidazol-2-amine mono hydrate] | 0.31 |
